# Experimental data as given in patent US12247216B2, “Pluripotent cell aggregates and use thereof” (ALEPH FARMS LTD., priority 2019, dated 2025).
# Tested on: bESC lines Alp 0501 and Alp 0505
# Assay: bESC differentiation to mesoderm, qPCR of Oct4 and Brachyury
# Format: cell-based, bovine
# Settings: 8 μM CHIR 99021 added to Essential 6 medium, aggregates expanded three days, FIG. 5
# Protocol: Quantitative PCR (qPCR) analysis was performed as follows: • 1. Total RNA was extracted from the cells using GeneJET RNA purification kit (Thermo Fisher Scientific). • 2. Reverse transcription was carried out with RevertAid First Strand cDNA Synthesis Kit (Thermo Fisher Scientific). 3. Quantitative PCR (qPCR) was performed to analyze expression of specific genes using specific primers designed for use in probe-based detection method. • 4. All expression data were normalized to beta-actin. Relative quantification of fold change was calculated using the comparative Ct (ΔΔCt) method. Initial differentiation of bESC to mesoderm: • 1. Cells were harvested and seeded for aggregates formation in 6-well plates as detailed in example 4 below. • 2. The initial conditions were: • a. bESC in the growth medium mTeSR1 (StemCell technologies) • b. bESC in the growth medium Essential 8 (Thermo Fisher Scientific) • 3. Four days after seeding, the medium was replaced to form the following conditions: • a. Medium of bESC aggregates formed in mTeSR1 remained. • b. Medium of bESC aggregates formed in Essential 8 medium was replaced to Essential 6 medium (Thermo Fisher Scientific) • Or— • c. Medium of bESC aggregates formed in Essential 8 medium was replaced to Essential 6 supplemented with 8 μM CHIR 99021. • 4. […]
smiles,measurement,value
"Cc1cnc(-c2cnc(NCCNc3ccc(C#N)cn3)nc2-c2ccc(Cl)cc2Cl)[nH]1 [CHIR 99021, 6-[[2-[[4-(2,4-Dichlorophenyl)-5-(5-methyl-1H-imidazol-2-yl)-2-pyrimidinyl]amino]ethyl]amino]-3-pyridinecarbonitrile]",Brachyury expression (initial mesoderm marker),increase
same,Oct4 expression (pluripotency marker),additional decrease
